Measured values from the NIST ThermoML archive (doi:10.1016/j.jct.2007.04.005).

Assay: xn = mol fraction of the nth substance listed
Conditions: 328.15 K, Liquid

CCCCCCCCC [nonane] + C1CCCCC1
Conditions	mass density [kg/m3]
100 kPa, x2 = 0	690.5
100 kPa, x2 = 0.09303	693.4
100 kPa, x2 = 0.2009	697
100 kPa, x2 = 0.3051	700.9
100 kPa, x2 = 0.417	705.3
100 kPa, x2 = 0.512	709.7
100 kPa, x2 = 0.5996	714.5
100 kPa, x2 = 0.7052	720.8
100 kPa, x2 = 0.7993	727.5
100 kPa, x2 = 0.9039	735.7
101 kPa, x2 = 0	690.88
101 kPa, x2 = 0.1022	693.98
101 kPa, x2 = 0.1548	695.7
101 kPa, x2 = 0.2009	697.27
101 kPa, x2 = 0.2591	699.37
101 kPa, x2 = 0.3306	702.13
101 kPa, x2 = 0.4003	705.03
101 kPa, x2 = 0.4596	707.71
101 kPa, x2 = 0.5321	711.23
101 kPa, x2 = 0.612	715.53
101 kPa, x2 = 0.6649	718.62
101 kPa, x2 = 0.7224	722.28
101 kPa, x2 = 0.8047	728.07
101 kPa, x2 = 0.8686	733.12
101 kPa, x2 = 0.9405	739.53
2130 kPa, x2 = 0	691.4
2130 kPa, x2 = 0.09303	694.3
2130 kPa, x2 = 0.2009	697.9
2130 kPa, x2 = 0.3051	701.8
2130 kPa, x2 = 0.417	706.3
2130 kPa, x2 = 0.512	710.7
2130 kPa, x2 = 0.5996	715.6
2130 kPa, x2 = 0.7052	721.9
2130 kPa, x2 = 0.7993	728.6
2130 kPa, x2 = 0.9039	737
4150 kPa, x2 = 0	694.4
4150 kPa, x2 = 0.09303	697.3
4150 kPa, x2 = 0.2009	700.9
4150 kPa, x2 = 0.3051	704.8
4150 kPa, x2 = 0.417	709.3
4150 kPa, x2 = 0.512	713.7
4150 kPa, x2 = 0.5996	718.6
4150 kPa, x2 = 0.7052	724.9
4150 kPa, x2 = 0.7993	731.6
4150 kPa, x2 = 0.9039	739.9
6180 kPa, x2 = 0	696.3
6180 kPa, x2 = 0.09303	699.2
6180 kPa, x2 = 0.2009	702.8
6180 kPa, x2 = 0.3051	706.7
6180 kPa, x2 = 0.417	711.2
6180 kPa, x2 = 0.512	715.6
6180 kPa, x2 = 0.5996	720.5
6180 kPa, x2 = 0.7052	726.9
6180 kPa, x2 = 0.7993	733.5
6180 kPa, x2 = 0.9039	741.9
8210 kPa, x2 = 0	698.1
8210 kPa, x2 = 0.09303	701
8210 kPa, x2 = 0.2009	704.7
8210 kPa, x2 = 0.3051	708.6
8210 kPa, x2 = 0.417	713.1
8210 kPa, x2 = 0.512	717.5
